# Assay results as given in patent publication US20030027820A1, “Method for treating fibrotic diseases or other indications V” (Alteon, Inc., priority 2001, published 2003).
# Structures can show the parent of a compound that is named as a salt.
# How the values were obtained:
# Type IV collagen = test: In situ hybridization studies, Type IV collagen; format: in vivo
# From the text: (§1) Cardiovascular risk correlates more closely with the systolic and the pulse pressure than with the diastolic pressure. In diabetic patients, the cardiovascular risk profile of diabetic patients is strongly correlated to duration of diabetes, glycemic control and blood pressure. Structural matrix proteins contribute to the function of vessels and the heart, and changes in the physical behavior of cardiovascular walls are believed to be important determinants of circulatory function. In elderly individuals, the loss of compliance in the aorta leads to isolated systolic hypertension, which in turn expands the arterial wall and thereby diminishes the dynamic range of elasticity. Loss of compliance also results in the development of left ventricular hypertrophy.
# [1] = tested on: collagen in cardiovascular tissues; test: Mass of collagen in cardiovascular tissues after treatment; format: in vivo
# From the text: as §1
# TGFbeta = test: In situ hybridization studies, TGFbeta; format: in vivo
# From the text: as §1
# [2] = Dog model for diabetes, ventricular elasticity; format: in vivo
# From the text: as §1
# [3] = In vivo studies of vascular stiffening in rodents, canines and primates
# From the text: as §1
# Phase IIa clinical trial = format: in vivo, human
# From the text: When the heart pumps blood into the vascular system, the ability of the arteries to expand helps to push blood through the body. When arteries become stiff, as they do in the natural process of aging, the ability of the arteries to expand is diminished and also has consequences for the heart. The heart has to work harder to pump the blood into the stiff arteries, and eventually hypertrophies (enlarges in size) to accomplish this. A hypertrophied heart is an inefficient pump, and is one of the disorders that leads to congestive heart failure. […] The potential clinical benefit of this is to lessen the effort that the heart must expend to push blood throughout the body. The effect is also believed to contribute to preventing hypertrophy and subsequent inefficiency of the heart, which inefficiency would contribute to congestive heart failure.
# Atherosclerosis is a disease that involves deposition of blood lipids in plaque in the arteries throughout the body. In coronary arteries, accumulation of plaque progressively leads to reduced coronary flow, with occlusion of the arteries causing focal death of cardiac tissue (myocardial infarction, heart attack). If the amount of tissue that dies is large enough, death ensures. […] Reducing local deposits of plaque should eventually lessen the risk of myocardial infarction and death due to heart attacks.
# Pulse pressure is the difference between systolic and diastolic blood pressure. In a young human, systolic pressure is typically 120 mm Hg and diastolic pressure is 80 mm Hg, resulting in a pulse pressure of 40 mm Hg. With age, in many individuals pulse pressure increases, largely due to the increase in systolic pressure that results from stiff vessel disease. In individuals with pulse pressure greater than 60 mm Hg there is an increased risk of death from cardiovascular morbidities.
structure (smiles),measurement,setting,value
"Cc1sc[n+](CC(=O)c2ccccc2)c1C [3-[2-phenyl-2-oxoethyl]-4,5-dimethyl-thiazolium salt]",expression of Type IV collagen,Type IV collagen,reduces the expression of both Type IV collagen and TGFbeta
same,mass of collagen in cardiovascular tissues,[1],reduction in the mass of collagen in cardiovascular tissues
same,expression of TGFbeta,TGFbeta,reduces the expression of both Type IV collagen and TGFbeta
same,end diastolic pressure (indicator of ventricular elasticity),[2],returned to a value at about the mid-point between the disease impaired value and the value for control dogs
same,end diastolic volume (indicator of ventricular elasticity),[2],returned to a value at about the mid-point between the disease impaired value and the value for control dogs
same,vascular stiffening,[3],substantially ameliorating vascular stiffening
same,"stiffness of arteries, as measured by the ratio of stroke volume (ml) to pulse pressure (mm Hg)",Phase IIa clinical trial; Phase IIa clinical trial,showed an ability to reverse the stiffness of arteries
same,amount of circulating triglycerides (lipids),Phase IIa clinical trial; Phase IIa trial,increased the amount of circulating triglycerides
same,systolic blood pressure,"Phase IIa clinical trial; Phase IIa trial, believed to be the primary cause of the pulse pressure decrease",lowering the systolic blood pressure
same,pulse pressure,"Phase IIa clinical trial; Phase IIa trial, elderly patients with pulse pressures greater than 60 mm Hg",reduced pulse pressure in elderly patients with pulse pressures greater than 60 mm Hg in a statistically significant manner
